# In article PMC9090415, “Discovery of small molecule inhibitors of Plasmodium falciparum apicoplast DNA polymerase” (Journal of Enzyme Inhibition and Medicinal Chemistry, 2022):
# Target: P. falciparum apicoplast DNA polymerase (Pf-apPOL) (Plasmodium falciparum, UniProt Q8ILY1)
# Assay: Fluorescence-based high-throughput DNA polymerase assay (molecular beacon), primary screen and dose-response;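 as to % inhibition ApPOL 90': test concentration in µM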;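 as to % inhibition apPOL 180': test concentration in µM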
# Format: biochemical
# Summary of the method: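 Single-point screening used 10 µM compound with 20 nM polymerase, 20 nM hairpin substrate and 6 µM dNTPs for 90 min at 25 °C. Confirmatory titrations (2.5–80 µM) followed fluorescence at three times, and IC50 was derived from a fit including a cooperativity term n.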
# [1] = primary screen value of the 186 hits; unit not given; 90 min, 10 µM
# [2] = supplemental file 2, sheet IC50 nontoxic compounds; Pf-apPOL
# P. falciparum apicoplast DNA polymerase (Pf-apPOL), sequence (Q8ILY1 entry or part of it): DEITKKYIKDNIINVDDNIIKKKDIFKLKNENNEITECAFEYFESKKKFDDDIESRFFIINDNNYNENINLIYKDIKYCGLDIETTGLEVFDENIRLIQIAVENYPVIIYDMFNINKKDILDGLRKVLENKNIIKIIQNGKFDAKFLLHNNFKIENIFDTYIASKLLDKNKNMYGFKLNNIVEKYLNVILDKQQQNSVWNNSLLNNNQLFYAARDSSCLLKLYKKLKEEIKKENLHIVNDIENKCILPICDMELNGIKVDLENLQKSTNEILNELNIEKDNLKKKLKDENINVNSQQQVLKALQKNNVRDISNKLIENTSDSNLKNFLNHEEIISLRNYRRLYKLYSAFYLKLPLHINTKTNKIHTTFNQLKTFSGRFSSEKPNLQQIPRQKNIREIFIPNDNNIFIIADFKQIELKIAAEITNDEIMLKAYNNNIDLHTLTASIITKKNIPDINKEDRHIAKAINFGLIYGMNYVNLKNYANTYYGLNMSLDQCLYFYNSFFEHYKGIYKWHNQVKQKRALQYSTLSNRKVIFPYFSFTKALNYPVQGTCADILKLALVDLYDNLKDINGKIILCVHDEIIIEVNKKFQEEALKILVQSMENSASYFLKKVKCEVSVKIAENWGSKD
compound,measurement,setting,value
O=C(NCC1CCN(C2CCCC2)CC1)C(=O)NC1CCCC1 [KU0199596],% inhibition Apo pol 10',DRC-1; 10'; concentration 2.5,0.01298%
same,% inhibition Apo pol 10',DRC-1; 10'; concentration 5,-3.723%
same,% inhibition Apo pol 10',DRC-1; 10'; concentration 10,11.8369%
same,% inhibition Apo pol 10',DRC-1; 10'; concentration 20,30.2117%
same,% inhibition Apo pol 10',DRC-1; 10'; concentration 40,52.3157%
same,% inhibition Apo pol 10',DRC-1; 10'; concentration 80,62.5585%
same,% inhibition Apol 90',DRC-1; 90'; concentration 2.5,3.739%
same,% inhibition Apol 90',DRC-1; 90'; concentration 5,4.197%
same,% inhibition Apol 90',DRC-1; 90'; concentration 10,23.1731%
same,% inhibition Apol 90',DRC-1; 90'; concentration 20,45.2225%
same,% inhibition Apol 90',DRC-1; 90'; concentration 40,64.9359%
same,% inhibition Apol 90',DRC-1; 90'; concentration 80,71.081%
same,% inhibition apPOL 180',DRC-1; 180'; concentration 2.5,10.6167%
same,% inhibition apPOL 180',DRC-1; 180'; concentration 5,16.0151%
same,% inhibition apPOL 180',DRC-1; 180'; concentration 10,39.3373%
same,% inhibition apPOL 180',DRC-1; 180'; concentration 20,63.8149%
same,% inhibition apPOL 180',DRC-1; 180'; concentration 40,81.7381%
same,% inhibition apPOL 180',DRC-1; 180'; concentration 80,87.3658%
same,% inhibition Apo pol 5',DRC-2; 5'; concentration 2.5,6%
same,% inhibition Apo pol 5',DRC-2; 5'; concentration 5,9%
same,% inhibition Apo pol 5',DRC-2; 5'; concentration 10,24%
same,% inhibition Apo pol 5',DRC-2; 5'; concentration 20,35%
same,% inhibition Apo pol 5',DRC-2; 5'; concentration 40,45%
same,% inhibition Apo pol 5',DRC-2; 5'; concentration 80,45%
same,% inhibition Apol 40',DRC-2; 40'; concentration 2.5,2.8%
same,% inhibition Apol 40',DRC-2; 40'; concentration 5,-3%
same,% inhibition Apol 40',DRC-2; 40'; concentration 10,21%
same,% inhibition Apol 40',DRC-2; 40'; concentration 20,34%
same,% inhibition Apol 40',DRC-2; 40'; concentration 40,44%
same,% inhibition Apol 40',DRC-2; 40'; concentration 80,41%
same,% inhibition ApPOL 90',DRC-2; 90'; concentration 2.5,2.29%
same,% inhibition ApPOL 90',DRC-2; 90'; concentration 5,-11%
same,% inhibition ApPOL 90',DRC-2; 90'; concentration 10,19%
same,% inhibition ApPOL 90',DRC-2; 90'; concentration 20,30%
same,% inhibition ApPOL 90',DRC-2; 90'; concentration 40,40%
same,% inhibition ApPOL 90',DRC-2; 90'; concentration 80,39%
same,% inhibition apPOL 180',DRC-2; 180'; concentration 2.5,-0.788%
same,% inhibition apPOL 180',DRC-2; 180'; concentration 5,-84%
same,% inhibition apPOL 180',DRC-2; 180'; concentration 10,8%
same,% inhibition apPOL 180',DRC-2; 180'; concentration 20,16%
same,% inhibition apPOL 180',DRC-2; 180'; concentration 40,30%
same,% inhibition apPOL 180',DRC-2; 180'; concentration 80,34%
same,% inhibition Apol 40',conc. 20; 40'; DRC-2,34%
same,% inhibition ApPOL 90',conc. 20; 90'; DRC-2,30%
same,% inhibition Apo pol 5',conc. 40; 5'; DRC-2,45%
same,% inhibition apPOL 180',conc. 40; 180'; DRC-2,30%
same,% inhibition Apo pol 5',conc. 80; 5'; DRC-2,45%
same,% inhibition apPOL 180',conc. 80; 180'; DRC-2,34%
same,DNA Pol,"primary screen value by plate and well; 90 min, 10 µM",24
same,DNA Pol,[1],24
Cc1ccc(C(=O)/C=C/C=C/C=C/N(C)C)o1 [Molecule 96],IC50,[2],4.93 µM
"O=C(Nc1nnc(-c2ccno2)o1)c1ccc2ncsc2c1 [Molecule 62, O=C(c1ccc2c(c1)scn2)Nc1nnc(o1)c1ccno1]",DNA Pol,"'DNA Pol'; screening value, unit not given; 90 min, 10 µM",57
same,% inhibition Apo pol 10',DRC-1; 10'; concentration 2.5,10.861%
same,% inhibition Apo pol 10',DRC-1; 10'; concentration 5,15.6525%
same,% inhibition Apo pol 10',DRC-1; 10'; concentration 10,33.6921%
same,% inhibition Apo pol 10',DRC-1; 10'; concentration 20,64.2838%
same,% inhibition Apo pol 10',DRC-1; 10'; concentration 40,78.1502%
same,% inhibition Apo pol 10',DRC-1; 10'; concentration 80,81.399%
same,% inhibition Apol 90',DRC-1; 90'; concentration 2.5,-2.7392%
same,% inhibition Apol 90',DRC-1; 90'; concentration 5,1.406%
same,% inhibition Apol 90',DRC-1; 90'; concentration 10,10.5152%
same,% inhibition Apol 90',DRC-1; 90'; concentration 20,33.263%
same,% inhibition Apol 90',DRC-1; 90'; concentration 40,51.9867%
same,% inhibition Apol 90',DRC-1; 90'; concentration 80,68.6824%
same,% inhibition apPOL 180',DRC-1; 180'; concentration 2.5,-12.5523%
same,% inhibition apPOL 180',DRC-1; 180'; concentration 5,-8.9419%
same,% inhibition apPOL 180',DRC-1; 180'; concentration 10,-4.993%
same,% inhibition apPOL 180',DRC-1; 180'; concentration 20,10.6012%
same,% inhibition apPOL 180',DRC-1; 180'; concentration 40,29.0771%
same,% inhibition apPOL 180',DRC-1; 180'; concentration 80,50.4309%
same,% inhibition Apo pol 5',"DRC-2, 5', concentration 2.5",9%
same,% inhibition Apo pol 5',"DRC-2, 5', concentration 5",11%
same,% inhibition Apo pol 5',"DRC-2, 5', concentration 10",38%
same,% inhibition Apo pol 5',"DRC-2, 5', concentration 20",39%
same,% inhibition Apo pol 5',"DRC-2, 5', concentration 40",37%
same,% inhibition Apo pol 5',"DRC-2, 5', concentration 80",28%
same,% inhibition Apol 40',"DRC-2, 40', concentration 2.5",6.5%
same,% inhibition Apol 40',"DRC-2, 40', concentration 5",8%
same,% inhibition Apol 40',"DRC-2, 40', concentration 10",36%
same,% inhibition Apol 40',"DRC-2, 40', concentration 20",42%
same,% inhibition Apol 40',"DRC-2, 40', concentration 40",53%
same,% inhibition Apol 40',"DRC-2, 40', concentration 80",56%
same,% inhibition ApPOL 90',"DRC-2, 90', concentration 2.5",4%
same,% inhibition ApPOL 90',"DRC-2, 90', concentration 5",4%
same,% inhibition ApPOL 90',"DRC-2, 90', concentration 10",29%
same,% inhibition ApPOL 90',"DRC-2, 90', concentration 20",38%
same,% inhibition ApPOL 90',"DRC-2, 90', concentration 40",54%
same,% inhibition ApPOL 90',"DRC-2, 90', concentration 80",62%
same,% inhibition apPOL 180',"DRC-2, 180', concentration 2.5",-3%
same,% inhibition apPOL 180',"DRC-2, 180', concentration 5",-6%
same,% inhibition apPOL 180',"DRC-2, 180', concentration 10",14%
same,% inhibition apPOL 180',"DRC-2, 180', concentration 20",21%
same,% inhibition apPOL 180',"DRC-2, 180', concentration 40",46%
same,% inhibition apPOL 180',"DRC-2, 180', concentration 80",61%
same,% inhibition ApPOL 90',conc 2.5 (unit not given); 90'; DRC-2,4%
same,% inhibition ApPOL 90',conc 5 (unit not given); 90'; DRC-2,4%
same,% inhibition Apo pol 5',conc 10 (unit not given); 5'; DRC-2,38%
same,% inhibition ApPOL 90',conc 20 (unit not given); 90'; DRC-2,38%
same,DNA Pol,"primary screen hit value, DNA Pol (186 hits); 90 min, 10 µM",57
O=c1cc(CN2CCCCC2)c2cc3c(cc2o1)OCO3 [Molecule 56],IC50,[2],38.1 µM
"Cc1cc(C)nc(Nc2nc(CC(=O)Nc3nc(-c4ccco4)cs3)cs2)n1 [Molecule 92, O=C(Nc1scc(n1)c1ccco1)Cc1csc(n1)Nc1nc(C)cc(n1)C]",% inhibition Apo pol 10',DRC-1; concentration 2.5; 10',-6.381%
same,% inhibition Apol 90',DRC-1; concentration 2.5; 90',-8.504%
same,% inhibition apPOL 180',DRC-1; concentration 2.5; 180',-14.5806%
same,% inhibition Apo pol 10',DRC-1; concentration 5; 10',13.7887%
same,% inhibition Apol 90',DRC-1; concentration 5; 90',3.55%
same,% inhibition apPOL 180',DRC-1; concentration 5; 180',-5.24%
same,% inhibition Apo pol 10',DRC-1; concentration 10; 10',59.5511%
same,% inhibition Apol 90',DRC-1; concentration 10; 90',43.4607%
same,% inhibition apPOL 180',DRC-1; concentration 10; 180',29.1586%
same,% inhibition Apo pol 10',DRC-1; concentration 20; 10',80.2022%
same,% inhibition Apol 90',DRC-1; concentration 20; 90',69.8736%
same,% inhibition apPOL 180',DRC-1; concentration 20; 180',60.6937%
same,% inhibition Apo pol 10',DRC-1; concentration 40; 10',86.2847%
same,% inhibition Apol 90',DRC-1; concentration 40; 90',85.2413%
same,% inhibition apPOL 180',DRC-1; concentration 40; 180',83.5937%
same,% inhibition Apo pol 10',DRC-1; concentration 80 (unit not given); 10',83.354%
same,% inhibition Apol 90',DRC-1; concentration 80; 90',86.9682%
same,% inhibition apPOL 180',DRC-1; concentration 80; 180',88.1815%
same,% inhibition Apo pol 5',DRC-2; 5'; concentration 5,6%
same,% inhibition Apo pol 5',DRC-2; 5'; concentration 40,41%
same,% inhibition Apol 40',DRC-2; 40'; concentration 10,41%
same,% inhibition Apol 40',DRC-2; 40'; concentration 20,59%
same,% inhibition Apol 40',DRC-2; 40'; concentration 80,59%
same,% inhibition ApPOL 90',DRC-2; 90'; concentration 5,6%
same,% inhibition Apo pol 5',DRC-2; concentration 2.5; 5',7%
same,% inhibition Apol 40',DRC-2; concentration 2.5; 40',9%
same,% inhibition ApPOL 90',DRC-2; concentration 2.5; 90',7.61%
same,% inhibition apPOL 180',DRC-2; concentration 2.5; 180',3.63%
same,% inhibition Apo pol 5',DRC-2; concentration 5; 5',6%
same,% inhibition Apol 40',DRC-2; concentration 5; 40',5.45%
same,% inhibition ApPOL 90',DRC-2; concentration 5; 90',6%
same,% inhibition apPOL 180',DRC-2; concentration 5; 180',0.203%
same,% inhibition Apo pol 5',DRC-2; concentration 10; 5',37%
same,% inhibition Apol 40',DRC-2; concentration 10; 40',41%
same,% inhibition ApPOL 90',DRC-2; concentration 10; 90',39%
same,% inhibition apPOL 180',DRC-2; concentration 10; 180',30%
same,% inhibition Apo pol 5',DRC-2; concentration 20; 5',43%
same,% inhibition Apol 40',DRC-2; concentration 20; 40',59%
same,% inhibition ApPOL 90',DRC-2; concentration 20; 90',60%
same,% inhibition apPOL 180',DRC-2; concentration 20; 180',57%
same,% inhibition Apo pol 5',DRC-2; concentration 40; 5',41%
same,% inhibition Apol 40',DRC-2; concentration 40; 40',65%
same,% inhibition ApPOL 90',DRC-2; concentration 40; 90',70%
same,% inhibition apPOL 180',DRC-2; concentration 40; 180',74%
same,% inhibition Apo pol 5',DRC-2; concentration 80; 5',29%
same,% inhibition Apol 40',DRC-2; concentration 80; 40',59%
same,% inhibition ApPOL 90',DRC-2; concentration 80; 90',66%
same,% inhibition apPOL 180',DRC-2; concentration 80; 180',73%
same,DNA Pol,[1],70
same,DNA Pol,"primary screen value; head prints only 'DNA Pol'; 90 min, 10 µM",70
